{
  "source": "patent US7192932B1",
  "about": "“Use of immunomodulating agents” (Lauras AS, priority 1997, dated 2007)",
  "key": {"PKAI isozymes": {"system": "PKAI isozymes", "conditions": "cited from earlier work"}, "PKAII isozymes": {"system": "PKAII isozymes", "conditions": "cited from earlier work"}, "[1]": {"system": "peripheral blood CD3+ T cells", "test": "TCR/CD3 (anti-CD3) stimulated T cell proliferation, [3H]-thymidine incorporation", "format": "cell-based, human", "conditions": "T cells from normal blood donors, FIG. 3A", "method": "(§1) Human peripheral blood CD3+ T cells were purified by negative selection from 50 ml of heparin-treated blood from normal healthy donors (Ullevaal University Hospital Blood Center, Oslo. Norway) or patients. Briefly, peripheral blood mononuclear cells were isolated by density gradient (Lymphoprep, NycoMed, Oslo, Norway) centrifugation followed by negative selection using monodisperse magnetic beads directly coated with antibodies to CD14 and CD19 and rat anti-mouse IgG beads coated with antibodies to CD56 and a magnet. Magnetic beads were all from Dynal (Oslo, Norway, cat. no. 111.12, 111.04, and 110.11. respectively) whereas anti-CD56 antibody was from Pharmingen (San Diego, Calif., cat. no. 31660.d). All steps were performed at 4° C.\nas §1, with “Peripheral blood” for “Human peripheral blood”, “Center, Oslo,” for “Center, Oslo.”, “selection using,” for “selection using”, “and 110.11,” for “and 110.11.”, “Calif., eat.” for “Calif., cat.”\nProliferation assays were performed by incubation of 0.75×10^6 CM+ T cells/ml in a 100 μl volume in that-bottom 96-well microtiter plates. Activation was achieved by subsequent addition of monodisperse magnetic beads coated with sheep anti-mouse IgG (Dynal. cat. no. 110.02) at a cell:bead ratio of 1:1 followed by addition of antiCD3 (clone SpvT3b) at a final dilution of 1:125,000 for the experiments shown. The optimal concentration of antibody was titrated carefully in the initial setup and parallel experiments at several different dilutions of antibody was always performed. Proliferation was analyzed by incubating, cells for 72 hours during which [^3H]thymidine was included for the last 16 hours. Cells were washed and harvested onto filters using a Scatron harvester (Suffolk, UK) and subsequently analyzed by β-scintillation counting. cAMP analogs, when used, were added 30 min prior to activation by addition of […] antibodies. 8-CPT-cAMP was from Sigorna (St. Louis, Mo.) and Sp- and Rp-8-Br-cAMPS were from BioLog Life Science Company (Bremen, Germany) and were all dissolved to concentrations of 4 to 10 mM in PBS and concentrations calculated using the extinction coefficients given by the manufacturer."}, "PBMC": {"system": "PBMC", "conditions": "cited from earlier work"}, "[2]": {"system": "peripheral blood CD3+ T cells", "test": "TCR/CD3 stimulated proliferation of liposome-transfected CD3+ T cells treated with 8-CPT-cAMP", "format": "cell-based, human", "conditions": "for Effect of peptide on cAMP dependent inhibition of T cell proliferation: increasing concentrations (25 to 100 μM), 8-CPT-cAMP 6.25 μM, FIG. 9", "method": "FIG. 8. Reversal of cAMP-mediated inhibition of TUR/CD3 stimulated T cell proliferation by the use of ribozyme to the RIα subunit of protein kinase A type I. TCR/CD3 stimulated proliferation of peripheral blood CD3+ T cells from normal healthy blood donor following treatment with liposomes alone (mock) or with liposomes and RIα ribozyme (RIα rbz, 10 μM) in the absence (solid bars) and presence (open bars) of 8-CPT-cAMP (12,5 μM).\nFIG. 9. Reversal of cAMP-mediated inhibition of TCR/CD3 stimulated T cell proliferation by the use of competitor peptide to compete the TCR/CD3 associated anchoring of RIα subunit of protein kinase A type I in T cells. TCR/CD3 stimulated proliferation of peripheral blood CD3+ T cells from normal healthy blood donor following treatment with liposomes alone (mock) or with increasing concentrations (25 to 100 μM) of a competitor peptide (Ht-31) that competes anchoring, to PKA type II or a control peptide (Ht31-P).\nFIG. 10. TCR/CD3 stimulated proliferation of peripheral blood CD3+ T cells in the presence of increasing, concentrations of 8-CPT-cAMP. Normalized levels of proliferation of T cells mock transfected with liposomes only (solid circles, continuous line) or incubated with liposomes and Ht31 peptide (35 μM) to compete anchoring of protein kinase A type I (open circles, dotted line) was assessed as [^3H]-thymidine incorporation after 48 h during which [^3H]-thymidine was added for the last 18 h. Note: right shift of the IC50 (arrow) from 1,8 to 4,8 μM in the presence of […].\nWhen transfected as synthetic RNA ribozyme or as a synthetic RNA ribozyme stabilized by incorporation of 2-deoxycytosine and 2-deoxy-uracil analogs into peripheral blood CD3+ T cells, the ribozyme reduced levels of RIα protein to approximately 20% of control levels by removing the RIα mRNA. By this strategy, the majority of protein kinase A type 1 was removed from the T cells. We then assessed the immune responsiveness of CD3+ T cells transfected with ribozyme compared to control (mock) transfected T cells measured as T cell proliferation after activation of T cells by stimulation of the T cell receptor/CD3 complex (TCR/CD3). In order to simulate a T cell dysfunction as that of HIV infection, with elevated levels of cAMP and increased activation of protein kinase A type 1, we treated normal T cells with low dose (12.5 around IC50) of the cAMP analog 8-(4-chlorophenyl)-thio-cAMPS (8-CPT-cAMP). […] For in vivo use pretreatment of ribozymes to allow cellular uptake or introduction into cells as minigenes will be necessary.\nWe incubated blood CD3+ T cells with increasing concentrations of Ht31 (SEQ. ID. NO 2) peptide. In order to facilitate uptake, cells were treated with liposomes in the presence or absence of-peptide. The optimal concentrations of DOTAP liposomes and anti-CD3 antibody were titrated carefully in order to maintain the membrane stability and normal TCR/CD3-dependent activation of the T cells. Cells were incubated for 20 hours with DOTAP/peptide and incubations continued in the absence (solid bars) or presence of 8-CPT-cAMP (6.25 μM, hatched bars) and activated to proliferation by stimulation of TCR/CD3 T cell immune responsiveness was assessed as [3H]thymidine incorporation.\nNext, the effect of the competitor peptide (Ht-31, 35 μM) on T cell proliferation was examined in the presence of increasing concentrations of 8-CPT-cAMP and compared to mock transfected cells treated with the same concentrations of 8-CPT-cAMP (FIG. 10). As shown previously for normal peripheral blood T cells. […] Compared to the left-shifted curves observed with T cells from HIV-infected patients or patients with CIV due to elevated levels of endogenous cAMP activating PKA type 1, the right-shift observed here would be expected to normalize the situation in patients."}, "[3]": {"target": "RIα subunit of cAMP-dependent protein kinase A type I (human, UniProt P10644 1-381)", "sequence (P10644 whole entry)": "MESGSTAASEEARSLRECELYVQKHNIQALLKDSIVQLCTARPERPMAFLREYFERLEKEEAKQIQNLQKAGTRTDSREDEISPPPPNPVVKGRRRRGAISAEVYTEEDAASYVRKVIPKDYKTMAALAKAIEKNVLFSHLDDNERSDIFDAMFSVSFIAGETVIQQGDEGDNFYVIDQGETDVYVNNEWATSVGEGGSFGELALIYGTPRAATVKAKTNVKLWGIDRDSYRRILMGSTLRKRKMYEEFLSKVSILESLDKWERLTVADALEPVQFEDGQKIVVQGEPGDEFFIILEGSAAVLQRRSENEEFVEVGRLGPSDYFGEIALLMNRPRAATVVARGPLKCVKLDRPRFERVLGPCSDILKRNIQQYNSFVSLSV", "test": "cell-based or functional assay"}},
  "data": [
    {"molecule": "Nc1ncnc2c1ncn2[C@@H]1O[C@@H]2CO[P@@](O)(=S)O[C@H]2[C@H]1O", "note": "[Rp-cAMPS, Rp-cAMP-phosphorothioate]", "values": [
      {"measurement": "Mode of action on PKAI isozymes", "setting": "PKAI isozymes", "result": "full antagonist"},
      {"measurement": "Mode of action on PKAII isozymes", "setting": "PKAII isozymes", "result": "partial agonist"}
    ]},
    {"molecule": "Nc1ncnc2c1nc(Br)n2[C@@H]1O[C@@H]2COP(O)(=S)O[C@@H]2C1O", "note": "(some centres unmarked) [Sp-8-Br-cAMPS, Sp-8-Bromo-cAMP-phosphorothioate, reference compound]", "values": [
      {"measurement": "Effect of cAMP agonist on TCR/CD3-stimulated proliferation", "setting": "[1]", "result": "inhibited"}
    ]},
    {"molecule": "C[C@H]1O[C@@H](n2cnc3c(N)ncnc32)C[C@@H]1O", "note": "[ddAdo, 2′,5′ dideoxyadenosine]", "values": [
      {"measurement": "Effect on cell proliferation", "setting": "PBMC; PBMC", "result": "increased the cell proliferation"},
      {"measurement": "Effect on cellular cAMP levels", "setting": "PBMC; PBMC", "result": "reduced cellular cAMP levels"},
      {"measurement": "Effective concentrations", "setting": "PBMC; higher concentrations suppressive or without further effect", "result": "~6", "unit": "ng/mL"}
    ]},
    {"molecule": "H2N-Asp-Leu-Ile-Glu-Glu-Ala-Ala-Ser-Arg-Ile-Val-Asp-Ala-Val-Ile-Glu-Gln-Val-Lys-Ala-Ala-Gly-Ala-Tyr-COOH (H-DLIEEAASRIVDAVIEQVKAAGAY-OH) [Ht31]", "values": [
      {"measurement": "Effect of peptide on 8-CPT-cAMP inhibition curve", "setting": "[2]; 35 μM peptide, FIG. 10", "result": "right-shifted inhibition curve"},
      {"measurement": "Effect of peptide on cAMP dependent inhibition of T cell proliferation", "setting": "[2]", "result": "reduced sensitivity to cAMP"},
      {"measurement": "Effect of peptide on cAMP dependent inhibition of T cell proliferation", "setting": "[2]; listed as Ht-31", "result": "reversed the cAMP dependent inhibition"}
    ]},
    {"molecule": "H-DLIEEAASRIVDAVIEQVKAAGAY-OH", "note": "[Ht31 competitor peptide (amino acids 493-515 of the A-kinase anchoring protein (AKAP) Ht31)]", "values": [
      {"measurement": "IC50 of 8-CPT-cAMP for inhibition of TCR/CD3 stimulated T cell proliferation with Ht-31 (35 µM); mock transfected cells had an IC50 around 1.8 µM", "setting": "[3]", "result": 4.8, "unit": "µM"},
      {"measurement": "TCR/CD3 stimulated proliferation of CD3+ T cells ([3H]thymidine incorporation) in the presence of 8-CPT-cAMP (6.25 µM), peptide delivered with DOTAP liposomes", "setting": "[3]", "result": 3, "unit": "fold"}
    ]}
  ]
}
